Assays:
Log D (shake-flask) = type: physicochemical; details: octanol/buffer
Protocol: The determination of log D was based on the shake-flask principle. The compound(s) of the present invention was slurried in an octanol-saturated buffer solution and sonicated to promote dissolution. The solution was filtered to remove any insoluble. After an initial sample was taken, the solution volume is adjusted to 10 ml, and a known volume of buffer-saturated octanol is added. The two-phase solution is mixed, then separated by centrifugation. A second sample from the bottom layer (aqueous layer) was then taken. Both samples, which represented the solution concentrations of the compound before and after addition of octanol, were determined by LC/MS/MS. The determined concentrations were used to calculated the log D value.

Thermodynamic solubility = type: physicochemical; details: aqueous buffer, thermodynamic from solid, 25° C., 100 mM phosphate buffer at pH 7.4
Source text: An aliqout of the saturated solution was then taken and its concentration measured by liquid chromatography/tandem mass spectrometry (LC/MS/MS). LC/MS/MS experimental conditions and instrumental parameters are described in detail in the LC/MS/MS section.

Compound `CN(CCO)C(=O)c1ccc(C(=C2CCN(Cc3cscn3)CC2)c2cccc3cccnc23)cc1` [compound of the invention, N-(2-hydroxyethyl)-N-methyl-4-(quinolin-8-yl(1-(thiazol-4-ylmethyl)piperidin-4-ylidene)methyl)benzamide] has a logD (Log D (shake-flask)) of 1.6 and a solubility at 24 h (Thermodynamic solubility) greater than 500 µM.

From patent US7977355B2, “N-(2-hydroxyethyl)-N-methyl-4-(quinolin-8-yl(1-(thiazol-4-ylmethyl)piperidin-4-ylidene)methyl” (Astrazeneca AB, priority 2006, dated 2011)
